PubChem BioAssay (NCI)
Where “and” joins values, the source holds several entries; their conditions need not be identical. Identical values can stand only once.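 Step 1: Grow cells in 96-well plates. Step 2: Expose to compound for 48 hours at 5 concentrations. Step 3: Interpolate endpoints linearly; if unreached, use highest concentration. The concentration for 50% growth inhibition is given as GI50. Definition used: TGI = concentration required for complete inhibition of growth.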

What was measured:
Experiment in all cases: NCI anticancer screen, dose series, 48 h
[1] = system: BT-549 breast
[2] = system: NCI-H460 lung
[3] = system: DU-145 prostate
[4] = system: UACC-62 melanoma
[5] = system: CCRF-CEM leukemia
[6] = system: UACC-257 melanoma
[7] = system: SN12C renal
[8] = system: SK-MEL-2 melanoma
[9] = system: HCT-15 colon
[10] = system: RXF 393 renal

Compound	TGI [1]	GI50 [2]	TGI [2]	GI50 [3]	TGI [3]	GI50 [4]	TGI [4]	GI50 [5]	TGI [5]	GI50 [6]	TGI [6]	GI50 [7]	TGI [7]	GI50 [8]	TGI [8]	GI50 [9]	TGI [9]	GI50 [10]	TGI [10]	GI50 [1]
Ic1ccc(-n2nnnc2-c2cnoc2-c2ccccc2)cc1	9.49 µM	35 µM	> 100 µM	5.99 µM	> 100 µM	29.3 µM	> 83.6 µM	1.21 µM	> 48.8 µM	> 58.5 µM	> 100 µM	48.9 µM	> 88.3 µM	> 94 µM	> 100 µM	29.1 µM	> 73.6 µM	43.1 µM	> 100 µM	
COc1cc(CNCCCN2C(=O)c3ccc4c5c(ccc(c35)C2=O)C(=O)N(CCCNCc2cc(OC)c(OC)c(OC)c2)C4=O)cc(OC)c1OC	1.77 µM	0.316 µM	1.04 µM	0.436 µM	1.11 µM	0.793 µM	1.57 µM	0.3 µM	4.07 µM	0.283 µM	0.541 µM	0.227 µM	0.475 µM	0.562 µM	1.52 µM	1.18 µM	3.55 µM	0.35 µM	0.99 µM	0.852 µM
CCCn1c(N)c(C(=O)N/N=C(/C)c2cc3cccc(OC)c3o2)sc1=S	> 100 µM	17.7 µM	> 100 µM	26.4 µM	> 100 µM	34.6 µM	> 100 µM	30.7 µM	> 100 µM	23.2 µM	> 100 µM	45 µM	> 100 µM	53.3 µM	> 100 µM	22.1 µM	> 100 µM	24.1 µM	> 100 µM	77.5 µM
Nc1nc(N)c(N=Nc2ccc([As](=O)(O)O)cc2)c(=O)[nH]1	> 100 µM		> 100 µM		> 100 µM		> 100 µM		> 100 µM		> 100 µM		> 100 µM		> 100 µM		> 100 µM		> 100 µM	
COc1ccncc1C#Cc1cncc(C(=O)Nc2ccc(CN3CCN(C)CC3)c(C(F)(F)F)c2)c1	> 100 µM	16.1 µM	71 µM	25.7 µM	> 100 µM	13.6 µM	> 100 µM	28.4 µM	> 100 µM	21.5 µM	> 100 µM	16.8 µM	> 100 µM	13.3 µM	48.3 µM	19.8 µM	> 100 µM	15.7 µM	49.5 µM	21.1 µM
CCCCCCNC(=O)c1nc(-c2ccccc2)oc1Cc1ccc(OP(=O)(O)O)cc1	32.7 µM	20.2 µM	43 µM	10.2 µM	22.3 µM	14 µM	27.9 µM	24 µM	67 µM	17.6 µM	35.6 µM	17 µM	32.9 µM	19 µM	37.1 µM	17.8 µM	37.2 µM	16.7 µM	31.3 µM	16.8 µM
Cc1ccc(/C=C/c2c(C(=O)/C=C/c3ccc(C(F)(F)F)cc3)c(C)nc3ccccc23)cc1	3.34 µM	1.53 µM	3.22 µM	1.56 µM	2.9 µM	1.55 µM	3.02 µM	0.411 µM	> 100 µM	2.15 µM	4.95 µM	1.51 µM	2.97 µM	1.83 µM	3.92 µM	0.89 µM	3.49 µM	1.12 µM	2.41 µM	1.58 µM
NS(=O)(=O)c1ccc(N(/C=C/C(=O)C(F)(F)F)CC(=O)c2ccc(Cl)cc2)cc1	> 100 µM	31.8 µM	89 µM	93.3 µM	> 100 µM	27.7 µM	91.6 µM	20.4 µM	44.5 µM	50.9 µM	> 100 µM	29.3 µM	> 100 µM	38.1 µM	> 100 µM	35.5 µM	> 100 µM	> 100 µM	> 100 µM	44.5 µM
O=C(c1c(F)ccc(NS(=O)(=O)N2CC[C@@H](F)C2)c1F)c1c[nH]c2ncc(-c3cnc(C4CC4)nc3)cc12	> 10 µM and 38.1 µM	4.25 µM and 4.67 µM	> 10 µM and 26.3 µM	6.03 µM and 5.37 µM	> 76.8 µM	0.0033 µM and < 0.01 µM	0.13 µM and 0.123 µM	6.52 µM and 7.64 µM	> 100 µM	0.00965 µM and < 0.01 µM	0.174 µM and 0.0739 µM	4.89 µM and 4.81 µM	> 10 µM and 54.2 µM	2.17 µM and 3.25 µM	> 8.34 µM and 15.7 µM	5.69 µM and 5.21 µM	> 10 µM and 40.6 µM	3.46 µM and 4.36 µM	> 10 µM and 25 µM	> 8.75 µM and 6.83 µM
C=CC(=O)N1CCC(C2CCNc3c(C(N)=O)c(-c4ccc(Oc5ccccc5)cc4)nn32)CC1 (centres undefined)	52.4 µM	31.4 µM	> 100 µM	11.6 µM	> 100 µM	10.6 µM	27 µM	24.8 µM	> 100 µM	20.3 µM	51.2 µM	13.4 µM	> 100 µM	20.3 µM	40.4 µM	14.9 µM	46.3 µM	9.22 µM	26.6 µM	12.9 µM
C[C@H]1Oc2cc(cnc2N)-c2c(nn(C)c2C#N)CN(C)C(=O)c2ccc(F)cc21	> 100 µM	28.2 µM	> 100 µM	26.6 µM	> 100 µM	22.4 µM	> 100 µM	> 100 µM	> 100 µM	25.8 µM	> 100 µM	43.1 µM	> 100 µM	78 µM	> 100 µM	47 µM	> 100 µM	16.7 µM	> 90.9 µM	> 100 µM
